What all share (type): in vivo
The subject of data set [1] is larvae of brown rice planthopper (Nilaparvata lugens). The experiment in a line: Insecticidal effect on larvae of brown rice planthopper, rice roots in agent solution (systemic, Test Example 6). Conditions: for Death Rate (%) at Each Concentration of Active Ingrediet: 4th day; for insecticidal activity through systemic property (in words): summary of root-uptake test against brown rice planthopper. The protocol: (§1) Insecticidal Effect on Larvae of Brown Rice Planthopper (Nilaparvata lugens)
Roots of young rice seedlings (height: about 10 cm) planted in a plastic cup were washed with water and soil was washed away so as not to damage the fine roots. The stem was pinched by a urethane tip (diameter: 3 cm, height: 2 cm) having a cut line and the roots were inserted into an Erlenmeyer flask to which 50 ml of an agent solution (an aqueous diluted solution of agricultural and horticultural insecticide of the invention prepared in accordance with Formulation Example 1) was placed beforehand (2 to 3 young rice seedlings/flask). The urethane tip was wedged into the mouse of the flask to fix the rice seedlings. A glass tube (diameter: 3 cm, height: 5 cm) was placed thereon, wedged into the urethane tip, and fixed with a tape. The flask in such state was kept in a constant temperature room at 25° C. for 3 days. Five larvae of brown rice planthopper were placed in the glass tube and then the tube was capped with a urethane tip, followed by keeping in the constant temperature room at 25° C. (duplicates at a concentration). The mortality and agony of the larvae were examined on 4th day after the treatment to obtain a death rate (%) taking an agonizing insect as a ½ dead insect. This test was carried out on three agent solutions different in the concentration of the active ingredient. The results are shown in Table 7 (the compound numbers in the table correspond to the numbers in Table 1).
As comparative compounds I to V, each compound having a structure shown below (Compound I described in Japanese Patent Laid-Open No. 316771/1988, Compounds II and III described in Examples of WO9845274, and Compounds IV and V included in the claim of WO9845274 but not included in the claim of the present application) was similarly subjected to the test. [drawing 36]
Brown rice planthopper (Nilaparvata lugens) is a highly problematic pest insect species which is harmful as described in Test Example 1, but a sufficient effect can not be attained by the application method of spraying an agent to stems and leafs, provided that the detection is delayed or that an enough amount of the agent is not spread to the roots.
Since this insect species has a characteristic of making its habitat around the roots of rice plant or the like and harming the plant through sucking fluid, more efficient method of controlling the insect may be a method of treating the surface of soil with an agent (granule treatment) before the outbreak of the species occurs widely. However, in order to attain a high controlling effect, a systemic property (a penetrating and migrating property) into a plant body is required as the nature of the agent.

Another data set has as its system Oryzias latipes. Put plainly: Test on toxicity to fish using Oryzias latipes (Test Example 7). The following applies: death rate, 0.5 ppm aqueous solution, adult Oryzias latipes, after 48 hours. The protocol:
Test on Toxicity to Fish Using Oryzias latipes
This test example is one example for examining safety of agricultural and horticultural insecticides to the environment.
Ten mg of each compound was dissolved in 1 ml of dimethyl sulfoxide and a 0.05 ml portion thereof was added to a glass beaker containing 1 liter of distilled water to obtain a 0.5 ppm aqueous solution. Into the aqueous solution was put five fishes of Oryzias latipes (adult, average weight: about 360 mg) and the mortality was examined after 48 hours to calculate a death rate (%) (5 fishes per 1 lot/beaker, single run). The results are shown in Table 8 (the compound numbers in the table correspond to the numbers in Table 1).
Similar to Test Example 6, Compound I described in Japanese Patent Laid-Open No. 316771/1988, Compounds II and III described in Examples of WO9845274, and Compounds IV and V included in the claim of WO9845274 but not included in the claim of the present application were subjected to the test, as comparative compounds.

The subject of data set [2] is larvae of common cutworm (Spodoptera litura). The experiment in a line: Insecticidal effect on larvae of common cutworm (leaf disc, Test Example 3). The following applies: 500 ppm, cabbage leaf disc soaked 1 minute, 3-instar larvae, 25° C., after 5 days. The protocol:
Insecticidal Effect on Larvae of Common Cutworm (Spodoptera litura)
(§2) A disc (6 cm in diameter) cut out of a cabbage leaf was soaked for 1 minute in an aqueous suspension of an agricultural and horticultural insecticide of the invention prepared in accordance with Formulation Example 1, air-dried, and placed in a plastic cup (inner diameter: 7 cm). Five 3-instar larvae of Spodoptera litura were set free in the cup (duplicates at a concentration). The cup was kept in a constant temperature room at 25° C., and the death and agony of the larvae were examined after 5 days from the treatment to obtain a death rate (%) taking an agonizing insect as a ½ dead insect. The results obtained are shown in Table 4 (the compound numbers in the Table below correspond to the numbers in Table 1).

Data set [3] concerns imagoes of adzuki bean weevil (Callosobruchus chinensis). The experiment in a line: Insecticidal effect on imagoes of adzuki bean weevil (spray, Test Example 4). Conditions: 500 ppm, emulsion sprayed, 25° C., after 4 days. The method, then: Insecticidal Effect on Imagoes of Adzuki Bean Weevil (Callosobruchus chinensis)
Two adzuki beans were put in a glass cylinder (inner diameter: 3 cm×length: 15 cm), and 10 imagoes of Callosobruchus chinensis were set free therein. An agricultural and horticultural insecticide of the invention was prepared in accordance with Formulation Example 3 and diluted with water, and 0.3 ml of the resulting emulsion was sprayed in the glass cylinder by means of a spray tower (manufactured by Mizuho Rika) (duplicates at a concentration). The cylinder was kept in a constant temperature room at 25° C., and the mortality and agony of the larvae were examined after 4 days from the treatment to obtain a death rate (%) taking an agonizing insect as a ½ dead insect. The results obtained are shown in Table 5 (the compound numbers in the Table correspond to the numbers in Table 1).

Data set [4] deals with larvae of brown rice planthopper (Nilaparvata lugens). The experiment in a line: Insecticidal effect on larvae of brown rice planthopper (spray, Test Example 1). Conditions: 500 ppm, emulsion sprayed, 4th instar larvae, 25° C., after 5 days; agonizing insect counted as 1/2 dead. The method, then:
as §1
A rice seedling was planted in a glass cylinder (inner diameter: 3 cm×length: 17 cm), and five 4th instar larvae of brown rice planthopper were set free therein. An agricultural and horticultural insecticide of the invention was prepared in accordance with Formulation Example 3 and diluted with water, and 0.5 ml of the resulting emulsion was sprayed into the cylinder by means of a spraying tower (manufactured by Mizuho Rika) (duplicates at a concentration). The cylinder was kept in a constant temperature room at 25° C., and the mortality and agony of the larvae were examined after 5 days from the treatment to obtain a death rate (%) taking an agonizing insect as a ½ dead insect. The results obtained are shown in Table 2 (the compound numbers in Table 2 correspond to the numbers in Table 1).

Data set [5] has as its system larvae of diamond back moth (Plutella xylostella). Put plainly: Insecticidal effect on larvae of diamond back moth (leaf disc, Test Example 2). Conditions: 500 ppm, cabbage leaf disc soaked 1 minute, 3-instar larvae, 25° C., after 4 days. The protocol: Insecticidal Effect on Larvae of Diamond Back Moth (Plutella xylostella)
as §2, with “of the” for “of an”, “of Plutella xylostella” for “of Spodoptera litura”, “after 4” for “after 5”, “Table 3” for “Table 4”

Data set [6] deals with larvae of green peach aphid (Myzus persicae). Put plainly: Insecticidal effect on larvae of green peach aphid (leaf dip, Test Example 5). The following applies: 500 ppm, leaves dipped about 5 seconds, 25° C., 4th day after treatment. The protocol: Insecticidal Effect on Larvae of Green Peach Aphid (Myzus persicae)
Water was put in a screw bottle (volume: 10 ml), and a leafstalk of Japanese radish was placed therein and inoculated with 5 to 6 imagoes of Myzus persicae per leave. After the inoculation, the bottle was put in a glass cylinder (diameter: […]; height: 15 cm) with a mesh cover, and the insects were let to proliferate in a constant temperature room kept at 25° C. for 3 days. The imagoes on the leaves were removed, and the leaves were dipped in an aqueous dilusion of an agricultural and horticultural insecticide prepared of the invention in accordance with Formulation Example 3 for about 5 seconds and then returned into the glass cylinder (duplicates at a concentration). The cylinder was kept in the constant temperature room at 25° C., and the number of the insects on the leaves was counted on the 4th day after the treatment to obtain a death rate (%). The results obtained are shown in Table 6 (the compound numbers in the Table correspond to the numbers in Table 1).

The subject of another data set is cat flea. Put plainly: Insecticidal effect on cat flea (treated filter, Test Example 8). Conditions: 0.7 mg/filter; mortality examined on 1st day and 2nd day after treatment. From the text: Insecticidal Effect on Cat Flea
After drying, the filter was placed on the bottom of a cylinder (diameter: 10 cm×height: 30 cm). Ten fleas were set free therein and the mortality was examined on 1st day and 2nd day after the treatment to calculate a death rate (%) based on the results. The results are shown in Table 9 (the compound numbers in the table correspond to the numbers in Table 1).

Setting [7] is: 0.2 ppm agent solution at rice roots.
Setting [8] is: 0.8 ppm agent solution at rice roots.
The mark [9] stands for this setting: 3.1 ppm agent solution at rice roots.

Consider `N#Cc1nn(-c2c(Cl)cc(C(F)(F)F)cc2Cl)c(NCc2cc[n+]([O-])cc2)c1SC(F)(F)F` [III], for which the “Death Rate (%) at Each Concentration of Active Ingrediet” value (“Death Rate (%) at Each Concentration” for short) in data set [1] (setting [7]) stood at 92%; in data set [1] (setting [8]), 100%; in data set [1] (setting [9]) it was 100%. Besides, the “Toxicity to fish (%)” value in the data set with Oryzias latipes was found to be 60%.
Consider `CSc1c(C#N)nn(-c2c(Cl)cc(C(F)(F)F)cc2Cl)c1NCc1cnccn1` [IV], for which the “Death Rate (%) at Each Concentration” value in data set [1] (setting [7]), in data set [1] (setting [8]) and in data set [1] (setting [9]) was 100% each time. For the same molecule, the “insecticidal activity through systemic property (in words)” value in data set [1] is “high systemic property”. In the data set with Oryzias latipes, the “Toxicity to fish (%)” value is on record as 100%.
As to “1-(2,6-dichloro-4-trifluoromethylphenyl)-4-trifluoromethylsulfinyl-5-(1-oxy-pyridin-3-ylmethylamino)pyrazole-3-carbonitrile [Compound 14]”, the “Death Rate (%) at Each Concentration” value in data set [1] (setting [7]), in data set [1] (setting [8]) and in data set [1] (setting [9]) was 100% throughout. For the same molecule, the “Death Rate (%)” value in data set [2], in data set [3], in data set [4], in data set [5] and in data set [6] was 100% each time. The “Toxicity to fish (%)” value in the data set on Oryzias latipes worked out at 0%.
For `N#Cc1nn(-c2c(Cl)cc(C(F)(F)F)cc2Cl)c(NCc2cnccn2)c1SC(F)(F)F` [V], the “Death Rate (%) at Each Concentration” value in data set [1] (setting [7]) amounted to 55%; in data set [1] (setting [8]), 80%; in data set [1] (setting [9]), 95%. In addition, in the data set with Oryzias latipes, the “Toxicity to fish (%)” value came out at 100%.
Turning to `N#Cc1nn(-c2c(Cl)cc(C(F)(F)F)cc2Cl)c(N)c1[S+]([O-])C(F)(F)F` (stereo not drawn) [I], the “Death Rate (%) at Each Concentration” value in data set [1] (setting [7]) is recorded as 33%; in data set [1] (setting [8]), 67%; in data set [1] (setting [9]), 92%. Further, the “insecticidal activity through systemic property (in words)” value in data set [1] was “obviously inferior effect”. Further, in the data set with Oryzias latipes, the “Toxicity to fish (%)” value came out at 100%.
With `N#Cc1nn(-c2c(Cl)cc(C(F)(F)F)cc2Cl)c(NCc2cnccn2)c1[S+]([O-])C(F)(F)F` (stereo not drawn) [Compound 5, 1-(2,6-dichloro-4-trifluoromethylphenyl)-4-trifluoromethylsulfinyl-5-(pyrazin-2-ylmethylamino)pyrazole-3-carbonitrile], the “Death Rate (%) at Each Concentration” value in data set [1] (setting [7]), in data set [1] (setting [8]) and in data set [1] (setting [9]) was 100% in each case. Moreover, the “Death Rate (%)” value (in data set [2]; in data set [3]; in data set [4]; in data set [5]; in the data set on cat flea; in data set [6]) was 100% in each case.
Consider `N#Cc1nn(-c2c(Cl)cc(C(F)(F)F)cc2Cl)c(NCc2ccncc2)c1SC(F)(F)F` [II], for which the entries for the “Death Rate (%) at Each Concentration” value in data set [1] (setting [8]) and in data set [1] (setting [9]) were 20% and 50%, respectively. Moreover, the “insecticidal activity through systemic property (in words)” value in data set [1] is “obviously inferior effect”. Moreover, in the data set on Oryzias latipes, the “Toxicity to fish (%)” value worked out at 80%.
In the case of `C[S+]([O-])c1c(C#N)nn(-c2c(Cl)cc(C(F)(F)F)cc2Cl)c1NCc1cnccn1` (stereo not drawn) [Compound 1, 1-(2,6-dichloro-4-trifluoromethylphenyl)-4-methylsulfinyl-5-(pyrazin-2-ylmethylamino)pyrazole-3-carbonitrile], the “Death Rate (%) at Each Concentration” value in data set [1] (setting [7]), in data set [1] (setting [8]) and in data set [1] (setting [9]) was 100% each time. Besides, the “Death Rate (%)” value in data set [3], in data set [4], in data set [5] and in data set [6] was 100% throughout. The “Toxicity to fish (%)” value with Oryzias latipes was 0%.

(Values after patent US6849633B2, “Pyrazole derivative, production process thereof, and pest control agent containing the same as active ingredient” (Nihon Nohyaku Co., Ltd., priority 1999, dated 2005).)
